Test results published in patent publication US20230364243A1, “CANCER-SELECTIVE TARGET DEGRADATION BY TARGETING GROUP CAGED PROTACS” (Beth Israel Deaconess Medical Center, Inc., priority 2021, published 2023).
Blank lines part the entries; values can stand above or below the compound they belong to.

What was measured:
HeLa cells = test: Cell viability of HeLa cells (CCK-8 cell proliferation assay); type: cell-based; conditions: 72 hours
Experimental: (§1) Cell in 96-well plates were treated with drugs as indicated, and then incubated with 10 μl/well of CCK-8 (cell counting Kit-8) solution at for 1-2 hours, followed by the measurement of optical density at 450 nm.

HFF-1 cells = test: Cell viability of HFF-1 normal cells (CCK-8 cell proliferation assay); type: cell-based, human; conditions: 72 hours
Experimental: as §1

[1] = biological target: Flag-tagged cereblon (CRBN) (Homo sapiens, UniProt Q96SW2); test: Streptavidin pulldown competition with biotinylated pomalidomide for Flag-CRBN; type: binding; conditions: for competition with biotinylated-pomalidomide to bind CRBN E3 ubiquitin ligase: caged, inert form, HEK293T cell lysis, 1 hour
Experimental: Streptavadin pull down assays were performed on cell lysis derived from HEK293T (kidney) cells. Cell lysis was incubated with biotin or biotin-POMA, with or without pomalidomide, FA-S2_POMA or FA-C2-POMA for 1 hour. Additionally, some cell lysates had been pretreated with GSH.
The streptavidin pulldown assay for biotin-pomalidomide was performed as previous reported. Briefly, Flag-CRBN was expressed in HEK293T cells lysed in PROTAC buffer B (50 mM Tris-HCl pH7.5, 150 mM NaCl and 0.5% NP-40) supplemented with protease inhibitors (Pierce) and phosphatase inhibitors (phosphatase inhibitor cocktail set I and II, Calbiochem). A total of 1 mg of cell lysate was incubated with 10 μl of 10 mM biotin-pomalidomide and 8 μl of streptavidin beads for 1 hour at 4° C. in the absence or presence of pomalidomide or its derivates. Alternatively, Folate-S2-pomalidomide or Folate-C2-pomalidomide were incubated with 5 mM GSH and then subjected to the competition bindingassay. Then, the beads were washed four times with NETN buffer (20 mM Tris-HCl pH 7.5, pH 8.0, 100 mM NaCl, 1 mM EDTA and 0.5% NP-40), before being resolved by SDS-PAGE and immunoblotted with Flag-tag antibody.

IKZF3 [2] = biological target: T1, IKZF3 (Homo sapiens, UniProt Q9UKT9); test: Western blotting of IKZF3 in MM.1S cells; type: cell-based; conditions: FOLR1-positive MM.1S cells, 12 hours
T1 construct: endogenous in cells; host or cells: MM.1S (also MM.1S-CRBN+/+ and CRBN-/-)
Experimental: (§2) For folic acid competitive degradation assay, cells were pretreated with folic acid (F8758, Sigma-Aldrich, 2.5 mM) for 2 hours, followed by the treatment of indicated PROTACs for indicated time. […] For proteasome or E3 ligase inhibition assay, cells were treated with MG132 (BML-P11020, ENZO Life Sciences, 10 μM) or MLN4924 (S7109, SelleckChem, 1 μM) another 12 hours.
(§3) Cells were lysed in EBC buffer (50 mM Tris-HCl pH 7.5, 120 mM NaCl and 0.5% NP-40) supplemented with protease inhibitors (Pierce) and phosphatase inhibitors (phosphatase inhibitor cocktailset I and II, Calbiochem). The protein concentrations of the lysates were measured using the Bio-Rad protein assay reagent on a Beckman Coulter DU-800 spectrophotometer. The lysates (40 μg protein) werethen resolved by 10% SDS-olyacrylamide gel electrophoresis (PAGE) at 130 V for 80 min and immunoblotted with indicated antibodies at 4° C. overnight, washed four times with Tris-buffered saline with 0.1% Tween-20 (TBST) buffer, incubated with secondary antibody for 1 hour at room temperature, and then washed 4 times with TBST.

MM.1S cells = test: Cell viability / proliferation of MM.1S cells (CCK-8); type: cell-based; conditions: for IC50: Homo sapiens, MM1.S
Experimental: (§4) For folic acid competitive degradation assay, cells were pretreated with folic acid (F8758, Sigma-Aldrich, 2.5 mM) for 2 hours, followed by the treatment of indicated PROTACs for indicated time. For endocytosis inhibition, cells were pretreated with Pitostop 2 (SML1169, Sigma-Aldrich, 1-30 μM) or MCD (21633, Cayman, 0.03-1 mM) for 12 hours, followed by co-treatment with indicated PROTACs for another 12 hours. For proteasome or E3 ligase inhibition assay, cells were treated with MG132 (BML-P11020, ENZO Life Sciences, 10 μM) or MLN4924 (S7109, SelleckChem, 1 μM) another 12 hours. For GSH-stimulating assay, cells were treated with S-Acetyl-GSH (29624, Cayman, 1 mM) with indicated PROTACs for 12 or 72 hours.
as §1

IKZF3 [3] = biological target: T2, IKZF3 (Homo sapiens, UniProt Q96SW2+Q9UKT9); test: Western blotting of IKZF3 in MM.1S cells; type: cell-based; parameters: endogenous in cells; host or cells: MM.1S (also MM.1S-CRBN+/+ and CRBN-/-); conditions: for effect on degrading IKZF3 after depletion of endogenous CRBN E3 ubiquitin ligase: CRBN knockout
Experimental: as §2, §3

[4] = Release of active compound after incubation with DTT in PBS at 37° C., HPLC analysis; type: physicochemical; conditions: DTT (2 equiv), 37° C. in PBS, HPLC
Experimental: FA-S2-POMA and the negative control FA-C2-POMA were incubated with dithiothreitol (DTT) under physiological conditions (37° C. in phosphate buffered saline (PBS)) and then subjected to HPLC analysis.
The effects of these folate caged PROTACS on ALK fusion protein degradation was assessed in cancer cells. FA-S2-MS4048 and FA-C2-MS4048 were incubated with DTT at 37° C. in PBS. […] Furthermore, compared to FA-S2-POMA (FIG. 11B), the release rate of FA-S2-MS4048 is slower.

IKZF1 = biological target: T3, IKZF1 (Homo sapiens, UniProt Q13422+Q96SW2); test: Western blotting of IKZF1 in SU-DHL-1 cells; type: cell-based; conditions: FOLR1-positive SU-DHL-1 cells, 12 hours
T3 construct: endogenous in cells; host or cells: SU-DHL-1
Experimental: as §3

BRDs = test: Western blot analysis of BRDs in OVCAR-8 ovary cancer cells; type: cell-based; conditions: OVCAR-8 cells
Experimental: (§5) Cells were lysed in EBC buffer (50 mM Tris pH 7.5, 120 mM NaCl, 0.5% NP-40) supplemented with protease inhibitors (Pierce) and phosphatase inhibitors (phosphatase inhibitor cocktail set I and II, Calbiochem). The protein concentrations of the lysates were measured using the Bio-Rad protein assay reagent on a Beckman Coulter DU-800 spectrophotometer. The lysates were then resolved by SDS-PAGE and immunoblotted with indicated antibodies.
as §3

BRD4 = biological target: T4, BRD4 (Homo sapiens, UniProt O60885); test: Western blot analysis of BRDs protein levels in HeLa cells; type: cell-based
T4 construct: endogenous in cells; host or cells: HeLa

SK-MEL-28 cells = test: Cell viability of SK-MEL-28 cells (CCK-8); type: cell-based; conditions: 72 hours
Experimental: as §1

MEK1 and MEK2 = test: Western blot analysis of MEK1 and MEK2 levels in HT29 and SK-MEL-28 cells; type: cell-based
Experimental: as §4, §5, §3

HT-29 cells = test: Cell viability of HT-29 cells (CCK-8); type: cell-based; conditions: 72 hours
Experimental: as §1

IKZF3 [5] = biological target: T2, IKZF3; test: Western blotting of IKZF3 in FOLR1-negative THP-1 cells; type: cell-based; parameters: endogenous in cells; conditions: 12 hours
Experimental: as §3

IC50 (HeLa cells): 0.183 µM
Compound: Cc1ncsc1-c1ccc([C@H](C)NC(=O)[C@@H]2C[C@@H](O)CN2C(=O)[C@@H](NC(=O)COCCCOCCNC(=O)C[C@@H]2N=C(c3ccc(Cl)cc3)c3c(sc(C)c3C)-n3c(C)nnc32)C(C)(C)C)cc1 [ARV-771]
IC50 (HFF-1 cells): 1.1 µM

IC50 (SK-MEL-28 cells): 0.0324 µM | IC50 (HT-29 cells): 0.176 µM
Compound: Cc1ncsc1-c1ccc([C@H](C)NC(=O)[C@@H]2C[C@@H](O)CN2C(=O)[C@@H](NC(=O)CCCCCCCCCCNCCCONC(=O)c2ccc(F)c(F)c2Nc2ccc(I)cc2F)C(C)(C)C)cc1 [MS432, reference compound]

Second part, the compound before the results:

Compound: Nc1nc2ncc(CNc3ccc(C(=O)N[C@@H](CCC(=O)NCc4cn(CCCCCCOC(=O)N5C(=O)CCC(N6C(=O)c7cccc(N)c7C6=O)C5=O)nn4)C(=O)O)cc3)nc2c(=O)[nH]1 (stereo partly drawn) [FA-C2-POMA, N^5-((1-(6-((3-(4-amino-1,3-dioxoisoindolin-2-yl)-2,6-dioxopiperidine-1-carbonyl)oxy)hexyl)-1H-1,2,3-triazol-4-yl)methyl)-N^2-(4-(((2-amino-4-oxo-3,4-dihydropteridin-6-yl)methyl)amino)benzoyl)-L-glutamine]
competition with biotinylated-pomalidomide to bind CRBN E3 ubiquitin ligase [1]: not compete | degradation of IKZF3 (IKZF3 [2]): ineffective in degrading IKZF3 | IC50 (MM.1S cells; 72 hours): 62.3 µM

Compound: Nc1nc2ncc(CNc3ccc(C(=O)N[C@@H](CCC(=O)NCc4cn(CCSSCCOC(=O)N5C(=O)CCC(N6C(=O)c7cccc(N)c7C6=O)C5=O)nn4)C(=O)O)cc3)nc2c(=O)[nH]1 (stereo partly drawn) [FA-S2-POMA, N^5-((1-(2-((2-((3-(4-amino-1,3-dioxoisoindolin-2-yl)-2,6-dioxopiperidine-1-carbonyl)oxy)ethyl)disulfanyl)ethyl)-1H-1,2,3-triazol-4-yl)methyl)-N^2-(4-(((2-amino-4-oxo-3,4-dihydropteridin-6-yl)methyl)amino)benzoyl)-L-glutamine]
effect on degrading IKZF3 with co-treatment of folic acid (IKZF3 [3]; MM.1S cells, 2.5 mM folic acid): effectively antagonized the effect | effect on degrading IKZF3 after depletion of endogenous CRBN E3 ubiquitin ligase (IKZF3 [3]; MM.1S cells): completely abolished the effect | potency in degrading IKZF3 after pretreatment with S-Ac-GSH (IKZF3 [3]; MM.1S cells, S-Ac-GSH 1 mM): significantly increased the potentcy | effect on degradation of IKZF3 with MG132 or MLN4924 (IKZF3 [3]; MM.1S cells, proteasome inhibitor MG132 or neddylation inhibitor MLN4924): blocked the effect | effect on degrading IKZFs with endocytosis inhibitor pitstop 2 or MβCD (IKZF3 [3]; co-treatment with pitstop 2 or methyl-β-cyclodextrin (MβCD)): compromised the effect | release of pomalidomide after addition of DTT [4]: efficient release of pomalidomide | competition with biotinylated-pomalidomide to bind CRBN E3 ubiquitin ligase [1]: not compete | release of active pomalidomide upon treatment with reducing agent GSH (pulldown) ([1]; pretreated with GSH): can release pomalidomide | degradation of IKZF1 (IKZF1): degraded IKZF3 or IKZF1 | degradation of IKZF3 (IKZF3 [2]): degraded IKZF3 or IKZF1 | IC50 (MM.1S cells; 72 hours): 1 µM | potency in inhibiting proliferation after pretreatment with S-Ac-GSH (MM.1S cells; S-Ac-GSH 1 mM): significantly increased potency | potency for suppression of proliferation with co-treatment of folic acid (MM.1S cells; folic acid co-treatment, 72 hours): significant reduction in potency

Compound: Cc1ncsc1-c1ccc([C@H](C)NC(=O)[C@@H]2C[C@@H](NC(=O)CCCCn3cc(CNC(=O)CC[C@H](NC(=O)c4ccc(NCc5cnc6nc(N)[nH]c(=O)c6n5)cc4)C(=O)O)nn3)CN2C(=O)[C@@H](NC(=O)COCCCOCCNC(=O)C[C@@H]2N=C(c3ccc(Cl)cc3)c3c(sc(C)c3C)-n3c(C)nnc32)C(C)(C)C)cc1 [Folate-ARV-771N]
degradation of BRDs (BRDs): but not Folate-ARV-771N, degraded BRDs | degrading BRDs (BRD4; HeLa cells, even at 100 nM): incapable of degrading BRDs

Compound: Cc1ncsc1-c1ccc([C@H](C)NC(=O)[C@@H]2C[C@@H](OC(=O)CCCCn3cc(CNC(=O)CC[C@H](NC(=O)c4ccc(NCc5cnc6nc(N)[nH]c(=O)c6n5)cc4)C(=O)O)nn3)CN2C(=O)[C@@H](NC(=O)COCCCOCCNC(=O)C[C@@H]2N=C(c3ccc(Cl)cc3)c3c(sc(C)c3C)-n3c(C)nnc32)C(C)(C)C)cc1 [Folate-ARV-771]
effect in degrading BRD4 after pretreatment with endocytosis inhibitor MβCD (BRD4; HeLa cells pretreated with MβCD): efficiently blocked the effect

Compound: Cc1ncsc1-c1ccc([C@H](C)NC(=O)[C@@H]2C[C@@H](OC(=O)CCCCn3cc(CNC(=O)CC[C@H](NC(=O)c4ccc(NCc5cnc6nc(N)[nH]c(=O)c6n5)cc4)C(=O)O)nn3)CN2C(=O)[C@@H](NC(=O)CCCCCCCCCCNCCCONC(=O)c2ccc(F)c(F)c2Nc2ccc(I)cc2F)C(C)(C)C)cc1 [Folate-MS432, N^2-(4-(((2-amino-4-oxo-3,4-dihydropteridin-6-yl)methyl)amino)benzoyl)-N^5-((1-(5-(((3R,5S)-1-((S)-2-(11-((3-((3,4-difluoro-2-((2-fluoro-4-iodophenyl)amino)benzamido)oxy)propyl)amino)undecanamido)-3,3-dimethylbutanoyl)-5-(((S)-1-(4-(4-methylthiazol-5-yl)phenyl)ethyl)carbamoyl)pyrrolidin-3-yl)oxy)-5-oxopentyl)-1H-1,2,3-triazol-4-yl)methyl)-L-glutamine]
IC50 (SK-MEL-28 cells; Homo sapiens): 0.39 µM | degradation of MEK1 and MEK2 (MEK1 and MEK2; HT29 and SK-MEL-28 cells, dose- and time-dependent): degraded MEK1 and MEK2 | effect in degrading MEK1 and MEK2 after pretreatment of folic acid (MEK1 and MEK2; HT-29 and SK-MEL-28 cells, folic acid pretreatment): blocked the effect | degradation of MEK1/2 after pretreatment with VHL ligand Ac-VHL (MEK1 and MEK2; HT-29 cells, Ac-VHL pretreatment): blocked the degradation of MEK1/2 | IC50 (HT-29 cells; Homo sapiens): 0.436 µM

Compound: Nc1cccc2c1C(=O)N(C1CCC(=O)NC1=O)C2=O (stereo not drawn) [pomalidomide, reference compound]
effect on degrading IKZF3 after depletion of endogenous CRBN E3 ubiquitin ligase (IKZF3 [3]; MM.1S cells): completely abolished the effect | degradation of IKZF3 (IKZF3 [5]): degrade IKZF3 or IKZF1 | degradation of IKZF1 (IKZF1): degrade IKZF3 or IKZF1 | degradation of IKZF3 (IKZF3 [2]): degrade IKZF3 or IKZF1 | IC50 (MM.1S cells; 72 hours): 0.058 µM
